What was measured:
Format in all cases: in vivo, human
[1] = system: rheumatoid arthritis; rheumatoid nodule; assay: Example 13: rheumatoid arthritis fingers, nodule injection and glove application; details: left hand only
Experimental: A subject noted changes in their fingers that appeared to be compatible with the diagnosis of early rheumatoid arthritis in autumn of the year. At about one month later there appeared over the terminal interphalangeal joint of the left third finger a raised inflammatory nodule compatible with the diagnosis of a rheumatoid nodule. The nodule was injected with 0.15 ml of a 2% aqueous solution/suspension of creatine monohydrate once weekly for four injections. […] Thereafter, for a period of one month, the subject wore a nitrile glove containing a few drops N-acetyl ethyl creatine 3% dissolved in water: propylene glycol 8:2 for about an hour twice daily on the left hand only.

erythematous pharyngitis = assay: Example 31: sore throat, spray mist
Experimental: A subject, upon arising from bed in the morning, was acutely aware of a severe sore throat. […] They were provided, in a 2 oz spray container, a 3% aqueous solution of C15 that they sprayed into their moth toward the inflamed pharynx. […] Repeated spraying during the day were followed by longer pain free intervals. They reported that at 7 PM the last pain free interval had been 1 hour. Next morning the pharyngitis had improved, and the subject used spray mist less frequently.

painful left knee = assay: Example 10: acute knee pain after physical trauma
Description: A subject with painful left knee gave a history of physical trauma to the left knee while cleaning their house. Degree of pain was sufficiently intense that it required them to wear a knee brace throughout the day, daily. […] The subject was provided a formulation of N-acetyl ethyl creatinate 1.5% dissolved in water: propylene glycol 8:2 for topical application.

[2] = system: cervical and thoracic spine; assay: Example 24: osteoarthritis, spine
Experimental: The same subject above topically applied an adhesive dressing, 5 cm wide and 30 cm long, saturated with a solution of C15 4% in WP 82 to the upper spine.
Over a period of 3 months, subcutaneous injections of 0.6 ml of the above C15 solution were injected subcutaneously into each of 5 intervertebral sites of the cervical and thoracic spine.

poison ivy dermatitis = assay: Example 36: poison ivy dermatitis itch
Experimental: A subject developed poison ivy dermatitis of their forearms about 18 hours after pruning bushes. Itch was intense at 24 hours when they applied C15 10% in a lotion made up of hydrophilic ointment USP 35% diluted with 65% water. […] Duration of itch relief next was for about 10 hours and the next for 12-15 hours. Relief was longer and longer from subsequent applications. Signs and symptoms of dermatitis were gone at 4 days.

[3] = system: acute pain in the left side of their neck; assay: Example 11: acute neck pain; details: 1.5% in water: propylene glycol 8:2, topical to neck
Description: A subject who had shoveled heavy snow all day, throwing the snow mostly to left, upon arising from bed the next morning experienced acute pain in the left side of their neck that intensified as they attempted to move their head in any direction.

[4] = system: osteoarthritis of the knees; assay: Example 24: osteoarthritis, knees
Description: Several days later, a repeated application of the same procedure gave the same results.

[5] = system: burning itch induced by Mucuna pruriens spicules; assay: Example 38: burning itch induced by Mucuna pruriens; details: 10% in lotion
Experimental: Pods with beans were obtained from Afro Caribe Botanica, 16 separate specimens. Small round brushes marketed for interdental cleaning were used to collect spicules from the pods. Application to both volar and extensor surfaces of the forearm were made by intense rubbing of the skin with such brush containing spicules. Burning itch developed within 5-7 minutes. […] Participants in this study included the following; • 1. A person. • 2. A person. • 3. A person. • 4. A person. • 5. A person.

[6] = system: migraine headaches and associated symptoms; assay: Example 29: migraine headache
Experimental: A subject, with a history of migraine headaches and associated symptoms, presented with a recurrent episode of such that had begun during their night of sleep. Symptoms included an intense frontal headache, and feeling of light dizziness, and nausea when they turned their head. They were provided a 9% solution of C15 dissolved in WEP 532 to be applied to the forehead and temporal areas as needed to relieve symptoms. […] Relief lasted for 1-4 hours during the first day of use, and during the second day of use, the subject experienced a much longer period of relief of symptoms.

[7] = system: pruritic urticarial mosquito bite lesions; assay: Example 28: mosquito bite itch
Experimental: Six subjects, 2 males and 4 females, age 31-74 years, who had gathered for a back yard cookout, suffered multiple mosquito bites. One subject carried 2 ounces of C15 6% in WEP 532 shared with the five others for topical application to the pruritic urticarial mosquito bite lesions.
This solution was later applied to an intensely pruritic urticarial lesion, 1 cm in diameter, due to a mosquito bite. […] Clinical evidence of the lesion began to fade about 3 minutes later, and at 5 minutes the subject had no sensory awareness of the lesion as it disappeared over the next 10-15 minutes.

[8] = system: osteoarthritis of multiple joints; assay: Example 18: whole body application
Experimental: A subject with continually worsening very painful osteoarthritis of multiple joints for 15-16 years prepared the following formulation: […]
N-Acetyl Ethyl Creatinate (C15): Water: Propylene glycol: Mineral Oil: Sodium lauryl sulfate […].
After taking a morning shower, the entire 40 ml formulation was applied by themself and their assistants to their entire body, except the scalp. […] The subject was without any sense of pain for 4.5 hours when mild painful discomfort in the neck was sensed. Over the next 3 hours pain in all joints returned to usual substantial levels.

CCOC(=O)CN(C)C(N)=NC(C)=O [Compound C15, N-acetyl ethyl creatinate]
pain on making a fist ([1]; 3% in glove): the left fist was pain free whereas the right fist was substantially painful | size of tight fist ([1]; 3% in glove): the size of the left fist was visibly smaller than that of the right | flexibility of hand and fingers ([1]; 3% in glove, right hand restricted): The left hand and fingers were completely flexible | feel of treated left hand vs untreated right hand ([1]; 3% in water: propylene glycol 8:2 in nitrile glove, about an hour twice daily, one month, after another two months): feel much better than the right hand | relief of pain (erythematous pharyngitis; 3% aqueous solution sprayed toward pharynx): immediate complete relief of pain | duration of relief, first spraying (erythematous pharyngitis; 3% aqueous spray): 25 min | last pain free interval at 7 PM (erythematous pharyngitis; repeated spraying during the day): 1 h | time to pain relief after application (painful left knee; 1.5% in water: propylene glycol 8:2, topical): about 2 minutes | extent of pain relief (painful left knee; 1.5% in water: propylene glycol 8:2, topical, person): pain in the knee completely vanished | recurrence of pain (painful left knee; at report 10 days later): Pain had not recurred | time to pain relief ([2]; 4% dressing): within an hour | duration of relief ([2]; 4% dressing, until removed): about 8 hours | extent of pain relief ([2]; adhesive dressing saturated with 4% in WP 82 on upper spine, person): complete relief of pain | extent of pain relief ([2]; subcutaneous 0.6 ml into each of 5 intervertebral sites, five occasions): complete relief of pain | duration of relief ([2]; subcutaneous 0.6 ml, 5 sites): 1-4 weeks | relief of itch (poison ivy dermatitis; 10% in lotion (hydrophilic ointment USP 35%, water 65%), forearms): Relief of itch was immediate | duration of itch relief (poison ivy dermatitis; first application): about 6 hours | time until signs and symptoms of dermatitis were gone (poison ivy dermatitis; repeated applications): 4 days | duration of itch relief (poison ivy dermatitis; second application): about 10 hours | duration of itch relief (poison ivy dermatitis; third application): 12 to 15 h | time to pain relief [3]: ≤ 2 min | extent of pain relief ([3]; person): neck pain subsided completely and did not return | duration of pain relief ([4]; 8% in WP 82, even with occlusion, person, severe osteoarthritis): 3 to 4 h | extent of pain relief ([4]; 8% in WP 82 on gauze wrapping occluded with plastic wrap, overnight, person): complete relief of pain | duration of complete relief (sleep) ([4]; 8% with occlusion overnight): 8 h | diminishment of pain after removal in the morning ([4]; 8% with occlusion, person): 85-90% | duration of diminishment after removal ([4]; 8% with occlusion, person): 7 to 8 h | persistence of relief [5]: permanent | time to complete relief of itch [5]: 1 to 2 min | extent of itch relief ([5]; forearm, five participants): complete relief of itch | relief of symptoms ([6]; 9% in WEP 532, to forehead and temporal areas): relieved symptoms within a few minutes | duration of relief ([6]; first day of use): 1 to 4 h | symptoms at end of third day ([6]; following 3 more applications): symptoms were no longer detectable | follow-up ([6]; next week): remained symptoms free over the next week of follow-up | extent of itch relief ([7]; 6% in WEP 532, topical, six subjects): itch was completely eradicated | extent of itch relief ([7]; 6% in WEP 532, person one, lesion 1 cm): all itch sensation was gone and did not return | time to eradication of itch ([7]; 6% in WEP 532, six subjects): about 1 minute | time to loss of itch sensation ([7]; person one): ≤ 1 min | time until lesion began to fade, after itch relief ([7]; person one): about 3 minutes | time of disappearance of lesion ([7]; person one, counted from 5 minutes): 10 to 15 min | return of itch ([7]; six subjects): No itch returned | extent of pain relief ([8]; 40 ml formulation applied to entire body except scalp, person): all pain ceased in all previously painful joints | duration without any sense of pain ([8]; whole body application): 4.5 h | time to pain relief ([8]; whole body application): about 5 minutes

— patent publication US20230218555A1, “CREATINE, ITS DERIVATIVES, COMPOSITIONS AND METHODS OF USE THEREOF” (priority 2021, published 2023)
